Measurements: article PMC10170162, “Identification of a new gibberellin receptor agonist, diphegaractin, by a cell-free chemical screening system” (Communications Biology, 2023)

Columns and labels:
Test in all cases: AlphaScreen GID1-DELLA interaction
Format in all cases: biochemical
OsGID1 (with OsSLR) = biological target: T1, OsGID1 (with OsSLR) (Oryza sativa, UniProt Q6L545, V326I/L330F); details: agonist; partner OsSLR; pH 8.0, 26 °C; unpurified cell-free proteins
T1 construct: gene GID1; C-terminal biotinylated GID1 and C-terminal FLAG-tagged DELLA, wheat germ cell-free synthesis, unpurified; with DELLA protein SLR1
T1 sequence (Q6L545 1-354 V326I/L330F): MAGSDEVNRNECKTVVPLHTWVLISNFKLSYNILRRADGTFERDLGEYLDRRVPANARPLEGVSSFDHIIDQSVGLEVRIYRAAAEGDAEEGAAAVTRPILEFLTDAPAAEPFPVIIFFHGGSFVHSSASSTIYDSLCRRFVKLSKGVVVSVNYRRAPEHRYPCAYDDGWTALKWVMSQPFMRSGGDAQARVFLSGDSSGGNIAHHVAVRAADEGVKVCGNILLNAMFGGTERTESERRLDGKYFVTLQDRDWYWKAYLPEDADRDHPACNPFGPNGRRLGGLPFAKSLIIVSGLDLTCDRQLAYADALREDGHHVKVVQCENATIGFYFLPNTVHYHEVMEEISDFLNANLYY
T1 sequence (Q7G7J6 1-625 partner): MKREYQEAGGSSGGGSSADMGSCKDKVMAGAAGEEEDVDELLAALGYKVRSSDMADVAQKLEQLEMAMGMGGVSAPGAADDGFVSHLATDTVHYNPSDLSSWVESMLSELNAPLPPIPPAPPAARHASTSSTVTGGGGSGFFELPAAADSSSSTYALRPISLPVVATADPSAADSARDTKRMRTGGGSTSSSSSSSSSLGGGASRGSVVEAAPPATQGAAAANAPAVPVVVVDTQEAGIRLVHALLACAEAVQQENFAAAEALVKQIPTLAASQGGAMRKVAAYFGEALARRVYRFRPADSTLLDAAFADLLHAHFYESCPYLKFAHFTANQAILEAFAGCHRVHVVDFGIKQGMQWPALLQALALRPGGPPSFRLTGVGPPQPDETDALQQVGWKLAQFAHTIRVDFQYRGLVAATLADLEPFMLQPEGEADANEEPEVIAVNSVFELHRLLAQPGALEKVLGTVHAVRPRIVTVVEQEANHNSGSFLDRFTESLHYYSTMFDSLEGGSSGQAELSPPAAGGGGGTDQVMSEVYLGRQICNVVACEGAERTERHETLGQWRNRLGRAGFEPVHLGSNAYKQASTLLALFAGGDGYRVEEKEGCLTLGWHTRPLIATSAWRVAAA

AtGID1c (with AtRGA) = biological target: T2, AtGID1c (with AtRGA) (Arabidopsis thaliana, UniProt Q940G6); details: agonist; partner AtRGA (also AtGAI); pH 8.0, 26 °C; unpurified cell-free proteins
T2 construct: gene GID1C; C-terminal biotinylated GID1 and C-terminal FLAG-tagged DELLA, wheat germ cell-free synthesis, unpurified; also tested with AtGAI; with DELLA protein RGA
T2 sequence (Q940G6 2-344): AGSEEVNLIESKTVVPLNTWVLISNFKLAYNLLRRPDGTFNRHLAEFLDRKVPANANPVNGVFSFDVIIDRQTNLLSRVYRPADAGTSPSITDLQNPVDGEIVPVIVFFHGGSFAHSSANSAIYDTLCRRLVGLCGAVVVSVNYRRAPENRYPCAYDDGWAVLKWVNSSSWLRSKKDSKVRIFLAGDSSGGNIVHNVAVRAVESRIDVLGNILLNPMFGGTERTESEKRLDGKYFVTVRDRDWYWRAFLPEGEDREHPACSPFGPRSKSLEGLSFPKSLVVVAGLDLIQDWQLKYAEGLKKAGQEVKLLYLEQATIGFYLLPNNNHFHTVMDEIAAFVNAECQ
T2 sequence (Q9SLH3 1-587 partner): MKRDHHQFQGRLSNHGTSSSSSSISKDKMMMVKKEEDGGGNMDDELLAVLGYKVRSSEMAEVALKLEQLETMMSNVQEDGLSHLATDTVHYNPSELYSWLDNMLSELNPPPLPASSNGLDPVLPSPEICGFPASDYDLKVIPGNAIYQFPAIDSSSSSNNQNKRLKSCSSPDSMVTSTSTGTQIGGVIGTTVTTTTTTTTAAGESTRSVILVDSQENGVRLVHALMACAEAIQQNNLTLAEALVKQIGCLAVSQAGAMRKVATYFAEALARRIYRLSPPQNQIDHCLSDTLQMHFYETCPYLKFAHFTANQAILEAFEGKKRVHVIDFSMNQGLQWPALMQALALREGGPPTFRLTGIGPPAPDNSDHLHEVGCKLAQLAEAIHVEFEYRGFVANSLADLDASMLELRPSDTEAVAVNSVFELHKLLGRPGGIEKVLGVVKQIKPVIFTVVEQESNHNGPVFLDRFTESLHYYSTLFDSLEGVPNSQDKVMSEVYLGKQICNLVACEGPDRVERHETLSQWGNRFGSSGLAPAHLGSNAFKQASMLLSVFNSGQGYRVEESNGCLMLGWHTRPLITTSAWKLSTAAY

VvGID1b (with VvDELLA2) = biological target: T3, VvGID1b (with VvDELLA2) (Vitis vinifera, UniProt F6HQ36); details: agonist; partner VvDELLA2 (also VvDELLA1); dose series; pH 8.0, 26 °C; unpurified cell-free proteins
T3 construct: C-terminal biotinylated GID1 and C-terminal FLAG-tagged DELLA, wheat germ cell-free synthesis, unpurified; cDNA from grape leaf mRNA; with DELLA protein
T3 sequence (F6HQ36 1-344): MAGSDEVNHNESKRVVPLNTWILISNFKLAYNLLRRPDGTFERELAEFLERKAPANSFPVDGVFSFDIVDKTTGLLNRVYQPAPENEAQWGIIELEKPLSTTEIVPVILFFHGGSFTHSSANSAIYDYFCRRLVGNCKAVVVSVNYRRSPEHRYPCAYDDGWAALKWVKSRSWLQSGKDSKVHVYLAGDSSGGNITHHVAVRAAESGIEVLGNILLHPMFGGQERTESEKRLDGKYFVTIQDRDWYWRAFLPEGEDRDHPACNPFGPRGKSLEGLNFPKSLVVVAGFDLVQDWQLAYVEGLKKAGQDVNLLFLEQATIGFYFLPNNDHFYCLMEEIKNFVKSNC
T3 sequence (F6HH58 1-532 partner): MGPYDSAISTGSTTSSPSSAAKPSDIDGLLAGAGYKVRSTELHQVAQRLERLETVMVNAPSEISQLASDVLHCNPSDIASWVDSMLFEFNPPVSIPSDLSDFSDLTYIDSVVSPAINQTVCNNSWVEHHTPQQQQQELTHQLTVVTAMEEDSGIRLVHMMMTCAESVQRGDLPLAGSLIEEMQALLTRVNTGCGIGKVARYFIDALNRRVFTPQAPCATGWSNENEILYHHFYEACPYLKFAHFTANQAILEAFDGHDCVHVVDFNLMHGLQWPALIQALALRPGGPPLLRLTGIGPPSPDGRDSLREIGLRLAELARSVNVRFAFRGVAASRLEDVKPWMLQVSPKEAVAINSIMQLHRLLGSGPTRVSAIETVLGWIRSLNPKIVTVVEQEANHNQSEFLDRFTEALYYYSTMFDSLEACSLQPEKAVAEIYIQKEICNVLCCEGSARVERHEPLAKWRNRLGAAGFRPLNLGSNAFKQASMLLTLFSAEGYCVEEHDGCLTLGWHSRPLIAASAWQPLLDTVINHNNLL

AtGID1b (with AtRGA) = biological target: T4, AtGID1b (with AtRGA) (Arabidopsis thaliana, UniProt Q9LYC1); details: agonist; partner AtRGA; pH 8.0, 26 °C; unpurified cell-free proteins
T4 construct: gene GID1B; C-terminal biotinylated GID1 and C-terminal FLAG-tagged DELLA, wheat germ cell-free synthesis, unpurified; with DELLA protein RGA
T4 sequence (Q9LYC1 2-358): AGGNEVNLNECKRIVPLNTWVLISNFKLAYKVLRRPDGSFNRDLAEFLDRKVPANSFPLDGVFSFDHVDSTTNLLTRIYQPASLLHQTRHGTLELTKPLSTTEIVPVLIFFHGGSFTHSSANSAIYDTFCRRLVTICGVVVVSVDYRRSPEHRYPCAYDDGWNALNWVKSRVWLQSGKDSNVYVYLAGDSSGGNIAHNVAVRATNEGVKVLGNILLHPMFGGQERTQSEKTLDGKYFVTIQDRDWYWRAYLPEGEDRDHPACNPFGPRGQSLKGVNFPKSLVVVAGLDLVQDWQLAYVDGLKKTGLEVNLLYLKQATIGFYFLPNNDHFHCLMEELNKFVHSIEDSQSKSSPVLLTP
T4 sequence (Q9SLH3 1-587 partner): T2 sequence (Q9SLH3 1-587 partner)

VvGID1a (with VvDELLA2) = biological target: T5, VvGID1a (with VvDELLA2) (Vitis vinifera, UniProt A5BRG2); details: agonist; partner VvDELLA2 (also VvDELLA1, VvDELLA3); dose series; pH 8.0, 26 °C; unpurified cell-free proteins
T5 construct: C-terminal biotinylated GID1 and C-terminal FLAG-tagged DELLA, wheat germ cell-free synthesis, unpurified; also tested with VvDELLA1 and VvDELLA3; with DELLA protein
T5 sequence (A5BRG2 1-344): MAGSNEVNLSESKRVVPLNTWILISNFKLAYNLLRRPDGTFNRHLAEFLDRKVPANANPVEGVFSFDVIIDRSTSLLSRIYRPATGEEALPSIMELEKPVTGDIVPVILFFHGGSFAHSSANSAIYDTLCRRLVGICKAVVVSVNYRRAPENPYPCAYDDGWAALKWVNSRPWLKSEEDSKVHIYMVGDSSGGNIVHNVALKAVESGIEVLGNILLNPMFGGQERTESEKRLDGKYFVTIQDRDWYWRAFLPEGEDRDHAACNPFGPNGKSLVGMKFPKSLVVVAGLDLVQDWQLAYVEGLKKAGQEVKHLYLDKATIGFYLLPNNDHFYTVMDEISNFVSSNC
T5 sequence (F6HH58 1-532 partner): T3 sequence (F6HH58 1-532 partner)

Row | Structure (SMILES) | AlphaScreen GID1-DELLA interaction (OsGID1 (with OsSLR)) | AlphaScreen GID1-DELLA interaction (AtGID1c (with AtRGA)) | AlphaScreen GID1-DELLA interaction (VvGID1b (with VvDELLA2)) | AlphaScreen GID1-DELLA interaction (AtGID1b (with AtRGA)) | AlphaScreen GID1-DELLA interaction (VvGID1a (with VvDELLA2))
1 | CCCCCC(C(=O)O)(c1ccccc1)c1ccccc1 [diphegaractin, 2,2-diphenylheptanoic acid] | OsGID1 V326I/L330F mutant increased the interaction with OsSLR by diphegaractin | AtGID1c with AtRGA and AtGAI | diphegaractin induced two interactions, VvGID1b–VvDELLA1 and VvGID1b–VvDELLA2 | it promoted the interaction of AtGID1b with AtRGA | –
2 | C=C1C[C@]23C[C@@]1(O)CC[C@H]2[C@@]12C=C[C@H](O)[C@@](C)(C(=O)O1)[C@H]2[C@@H]3C(=O)O [GA3] | swapping had little effect on the interaction between DELLA proteins and GA receptors by GA3 | – | VvGID1b also exhibited active and inactive GA-dependent interactions with VvDELLA1 and VvDELLA2 | – | VvGID1a exhibited GA-dependent interactions with VvDELLA1-3
3 | C=C1C[C@]23C[C@H]1CC[C@H]2[C@@]12C=C[C@H](O)[C@@](C)(C(=O)O1)[C@H]2[C@@H]3C(=O)O [GA7] | – | – | VvGID1b also exhibited active and inactive GA-dependent interactions with VvDELLA1 and VvDELLA2 | – | VvGID1a exhibited GA-dependent interactions with VvDELLA1-3
4 | C=C1C[C@]23C[C@@]1(O)CC[C@H]2[C@@]12CCC[C@@](C)(C(=O)O1)[C@H]2[C@@H]3C(=O)O [GA20] | – | – | – | – | Although a much higher concentration was required, inactive GAs also induced these interactions
5 | C=C1C[C@]23C[C@@]1(O)CC[C@H]2[C@@]12CC[C@H](O)[C@@](C)(C(=O)O1)[C@H]2[C@@H]3C(=O)O [GA1] | – | – | VvGID1b also exhibited active and inactive GA-dependent interactions with VvDELLA1 and VvDELLA2 | – | VvGID1a exhibited GA-dependent interactions with VvDELLA1-3
6 | C=C1C[C@]23C[C@H]1CC[C@H]2[C@@]12CC[C@H](O)[C@@](C)(C(=O)O1)[C@H]2[C@@H]3C(=O)O [GA4] | – | – | VvGID1b also exhibited active and inactive GA-dependent interactions with VvDELLA1 and VvDELLA2 | – | VvGID1a exhibited GA-dependent interactions with VvDELLA1-3
7 | C=C1C[C@]23C[C@H]1CC[C@H]2[C@@]12CCC[C@@](C)(C(=O)O1)[C@H]2[C@@H]3C(=O)O [GA9] | – | – | – | – | Although a much higher concentration was required, inactive GAs also induced these interactions
